Experimental data taken from BindingDB's records for doi:10.1016/j.bmcl.2004.05.088 (Eli Lilly, 2004).
Counter-ions that a name gives are not always drawn.

Columns and labels:
Experiment in all cases: CDK Kinase Inhibition Assay
[1] = target: Cyclin-dependent kinase 2/G1/S-specific cyclin-E1 (Homo sapiens, UniProt P24941); conditions: 25 °C
Experimental: (§1) In vitro CDK assay using purified enzyme, was incubated at room temperature with substrate, and test compounds in the presence of ATP/[gamma-33P]ATP. 33P incorporation was measured with a Top Count (Packard). IC50 is the inhibitor concentration which inhibits 50% of kinase activity that catalyzes the transfer of the terminal phosphate from 33P labeled ATP to the substrate.

[2] = target: Cyclin-dependent kinase 4/G1/S-specific cyclin-D1 (Homo sapiens, UniProt P11802); conditions: pH 7; 22 °C
Experimental: as §1

[3] = target: cAMP-dependent protein kinase catalytic subunit alpha (Bos taurus, UniProt P00517); conditions: 25 °C

Sequence of Cyclin-dependent kinase 4/G1/S-specific cyclin-D1 (P11802 whole entry): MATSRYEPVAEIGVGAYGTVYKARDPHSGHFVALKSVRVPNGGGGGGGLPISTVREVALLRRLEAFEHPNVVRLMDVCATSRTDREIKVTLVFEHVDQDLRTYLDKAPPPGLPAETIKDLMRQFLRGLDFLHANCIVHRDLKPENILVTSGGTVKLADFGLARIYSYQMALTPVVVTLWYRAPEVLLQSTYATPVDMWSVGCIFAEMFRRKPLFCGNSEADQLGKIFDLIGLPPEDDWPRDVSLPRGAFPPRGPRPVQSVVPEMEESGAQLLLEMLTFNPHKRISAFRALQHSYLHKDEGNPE
Sequence of Cyclin-dependent kinase 4/G1/S-specific cyclin-D1 (P24385 whole entry, further chain): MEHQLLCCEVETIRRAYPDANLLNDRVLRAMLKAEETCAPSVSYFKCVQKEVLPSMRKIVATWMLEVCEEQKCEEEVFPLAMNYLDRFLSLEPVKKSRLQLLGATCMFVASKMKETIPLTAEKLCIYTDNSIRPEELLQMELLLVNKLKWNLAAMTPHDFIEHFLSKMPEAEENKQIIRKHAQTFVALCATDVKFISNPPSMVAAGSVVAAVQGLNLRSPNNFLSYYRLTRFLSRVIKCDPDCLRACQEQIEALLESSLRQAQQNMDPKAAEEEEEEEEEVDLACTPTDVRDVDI

| IC50 [1] | IC50 [2] | IC50 [3] | Structure (SMILES) |
| --- | --- | --- | --- |
| 38 nM | 27 nM |  | O=C1NC(=O)c2c1c1c3ccccc3[nH]c1c1c2c2cccc3c2n1CCNC3 [1,4,14,24-tetraazaheptacyclo[16.8.1.0^{2,17}.0^{3,11}.0^{5,10}.0^{12,16}.0^{22,27}]heptacosa-2(17),3(11),5(10),6,8,12(16),18(27),19,21-nonaene-13,15-dione hydrochloride] |
|  | 160 nM |  | O=C1NC(=O)c2c1c1c3ccccc3[nH]c1c1c2c2cccc3c2n1CCNCC3 [1,4,14,25-tetraazaheptacyclo[16.9.1.0^{2,17}.0^{3,11}.0^{5,10}.0^{12,16}.0^{22,28}]octacosa-2(17),3(11),5(10),6,8,12(16),18(28),19,21-nonaene-13,15-dione hydrochloride] |
|  | 44 nM |  | O=C1NC(=O)c2c1c1c3ccc(C(F)(F)F)c(CO)c3[nH]c1c1c2c2cccc3c2n1CCNC3 [6-(hydroxymethyl)-7-(trifluoromethyl)-1,4,14,24-tetraazaheptacyclo[16.8.1.0^{2,17}.0^{3,11}.0^{5,10}.0^{12,16}.0^{22,27}]heptacosa-2(17),3(11),5(10),6,8,12(16),18(27),19,21-nonaene-13,15-dione hydrochloride] |
|  | 110 nM | > 2000 nM | O=C1NC(=O)c2c1c1c3cc(F)c(F)cc3[nH]c1c1c2c2cccc3c2n1CCNC3 [7,8-difluoro-1,4,14,24-tetraazaheptacyclo[16.8.1.0^{2,17}.0^{3,11}.0^{5,10}.0^{12,16}.0^{22,27}]heptacosa-2(17),3(11),5(10),6,8,12(16),18(27),19,21-nonaene-13,15-dione hydrochloride] |
|  | 69 nM | > 2000 nM | O=C1NC(=O)c2c1c1c3ccc(C(F)(F)F)cc3[nH]c1c1c2c2cccc3c2n1CCNC3 [7-(trifluoromethyl)-1,4,14,24-tetraazaheptacyclo[16.8.1.0^{2,17}.0^{3,11}.0^{5,10}.0^{12,16}.0^{22,27}]heptacosa-2(17),3(11),5(10),6,8,12(16),18(27),19,21-nonaene-13,15-dione hydrochloride] |
| 16 nM |  |  | O=C1NC(=O)c2c1c1c3ccc(F)cc3[nH]c1c1c2c2cccc3c2n1CCNC3 [7-fluoro-1,4,14,24-tetraazaheptacyclo[16.8.1.0^{2,17}.0^{3,11}.0^{5,10}.0^{12,16}.0^{22,27}]heptacosa-2(17),3(11),5(10),6,8,12(16),18(27),19,21-nonaene-13,15-dione hydrochloride] |
|  | 34 nM |  | O=C1NC(=O)c2c1c1c3cc(F)ccc3[nH]c1c1c2c2cccc3c2n1CCNC3 [8-fluoro-1,4,14,24-tetraazaheptacyclo[16.8.1.0^{2,17}.0^{3,11}.0^{5,10}.0^{12,16}.0^{22,27}]heptacosa-2(17),3(11),5(10),6,8,12(16),18(27),19,21-nonaene-13,15-dione hydrochloride] |
|  | 100 nM | > 2000 nM | NCC(=O)N1CCn2c3c(cccc3c3c4c(c5c6ccccc6[nH]c5c32)C(=O)NC4=O)C1 [24-(2-aminoacetyl)-1,4,14,24-tetraazaheptacyclo[16.8.1.0^{2,17}.0^{3,11}.0^{5,10}.0^{12,16}.0^{22,27}]heptacosa-2(17),3(11),5(10),6,8,12(16),18(27),19,21-nonaene-13,15-dione hydrochloride] |
|  | 78 nM | > 2000 nM | CC(C)N1CCn2c3c(cccc3c3c4c(c5c6ccccc6[nH]c5c32)C(=O)NC4=O)C1 [24-(propan-2-yl)-1,4,14,24-tetraazaheptacyclo[16.8.1.0^{2,17}.0^{3,11}.0^{5,10}.0^{12,16}.0^{22,27}]heptacosa-2(17),3(11),5(10),6,8,12(16),18(27),19,21-nonaene-13,15-dione] |
|  | 120 nM | > 2000 nM | Cn1cnc(S(=O)(=O)N2CCn3c4c(cccc4c4c5c(c6c7ccccc7[nH]c6c43)C(=O)NC5=O)C2)c1 [24-[(1-methyl-1H-imidazole-4-)sulfonyl]-1,4,14,24-tetraazaheptacyclo[16.8.1.0^{2,17}.0^{3,11}.0^{5,10}.0^{12,16}.0^{22,27}]heptacosa-2(17),3(11),5(10),6,8,12(16),18(27),19,21-nonaene-13,15-dione] |
|  | 53 nM | > 2000 nM | CS(=O)(=O)N1CCn2c3c(cccc3c3c4c(c5c6ccccc6[nH]c5c32)C(=O)NC4=O)C1 [24-methanesulfonyl-1,4,14,24-tetraazaheptacyclo[16.8.1.0^{2,17}.0^{3,11}.0^{5,10}.0^{12,16}.0^{22,27}]heptacosa-2(17),3(11),5(10),6,8,12(16),18(27),19,21-nonaene-13,15-dione] |
